# According to patent US20060276436A1, “Farnesyl dibenzodiazepinone formulation” (Ecopia BioSciences, Inc., priority 2005, published 2006):
# Several values for one entry are separate records, joined by “and”; a condition that tells them apart may be missing. Equal entries are not always repeated. Where two headings read alike, the source gives them in different places.
# Assays:
# [1] = Population pharmacokinetic analysis (NONMEM), monkey; format: in vivo; settings: cynomolgus, plasma, iv, Monkey (CIV); for half-life: monkey; for Vd: read-out: Vss
# From the text: (§1) Plasma concentrations of Compound 1 were obtained from mice, rats, and monkeys following intravenous injection or continuous infusion. Compound 1 pharmacokinetic parameters in mice, rats, and monkeys were estimated using population pharmacokinetic analysis, a function of the software program NONMEM™ (version 5). Typical population pharmacokinetic parameters for Compound 1 in humans were extrapolated from allometric equations that were derived from pharmacokinetic parameters estimated in the three animal species. […] A two-compartment model with a first-order elimination from the central compartment adequately described Compound 1 plasma concentration-time profiles following intravenous bolus injection (30 mg/kg) in mice and rats, 7-day continuous infusion in rats (50 to 170 mg/kg/day), and 14-day continuous infusion in monkeys (5 to 30 mg/kg/day).
# [2] = Pharmacokinetic study using Formulation D11 (IV, IP, SC) and Formulation C (PO); format: in vivo, Crl: CD1 mice
# Description: Formulation D11, at a final concentration of 6 mg/ml of Compound 1 was used for IV, IP and SC bolus administration. […] Prior to dosing, animals (female Crl: CD1 mice; 6 weeks of age, 22-24 g) were weighed, randomly selected and assigned to the different treatment groups. Compound 1 was administered by the intravenous (IV), subcutaneous (SC), intraperitoneal (IP), or oral (PO) route to the assigned animals. The dosing volume of Compound 1 was 5 mL per kg body weight. Animals were anesthetized prior to bleeding with 5% isoflurane. Blood was collected into microtainer tubes containing the anticoagulant K2EDTA by cardiac puncture from each of 4 animals per bleeding timepoint (2 min, 5 min, 15 min, 30 min, 1 h, 2 h, 4 h and 8 h). Following collection, the samples were centrifuged and the plasma obtained from each sample was recovered and stored frozen (at approximately −80° C.) pending analysis. […] Samples were analysed by LC/MS/MS. Standard curve ranged from 25 to 2000 ng/mL with limit of quantitation (LOQ)≦25 ng/mL and limit of detection (LOD) of 10 ng/mL.
# Plasma values of Compound 1 falling below the limit of quantitation (LOQ) were set to zero. Mean concentration values and standard deviation (SD) were calculated at each timepoints of the pharmacokinetic study (n=4 animals/timepoint). The following pharmacokinetic parameters were calculated: area under the plasma concentration versus time curve from time zero to the last measurable concentration time point (AUC0-t), area under the plasma concentration versus time curve extrapolated to infinity (AUCinf), maximum observed plasma concentration (Cmax), time of maximum plasma concentration (tmax), apparent first-order terminal elimination rate constant (kel), apparent first-order terminal elimination half-life will be calculated as 0.693/kel (t1/2). The systemic clearance (CL) of Compound 1 after intravenous administration was calculated using Dose/AUCinf. Pharmacokinetic parameters were calculated using Kinetica™ 4.1.1 (Innaphase Corporation, Philadelphia, Pa.).
# [3] = Pharmacokinetics of Formulation D11 given CIV for 14 days in rats; format: in vivo; settings: both sexes, Sprague-Dawley, rat, plasma; for concentration at 2 h: read-out: mean plasma concentration 2 hours after the end of infusion; for Vd / AUC / clearance: iv, 14-day CIV
# Description: Sprague-Dawley rats received an intravenous continuous infusion over 14 days of Compound 1 at 25 mg/kg/day, 50 mg/kg/day, or 75 mg/kg/day at a rate of 2 mL/kg/h for 14 consecutive days (Formulation D11). Blood was collected from the jugular vein in tubes containing K2 EDTA from 3 rats/sex/group at the following time points: 2, 6, and 12 hours after the start of dosing on Day 1, on Day 2 at 6 hours (approximately 30 hours after the start of dosing), on Days 6 and 10 at 6 hours, and on Day 15, 1 hour prior the end of dosing, and then at 5 min, 15 min, 30 min, 1 h, and 2 h after the end of dosing.
# [4] = tested on: human breast tumor (MDA-MB-231) xenografts; experiment: Human MDA-MB-231 breast cancer mice model; format: in vivo, HRLN female nude mice; settings: Intravenous treatment, 100 mg/kg 5/2/5/2/5
# Description: The antitumor activity of Compound 1 was further tested in a human MD-MB-231 breast cancer model in mice, using formulation D11 at 6 and 10 mg/mL concentrations (see Table 8). HRLN female nude mice (8 weeks of age) were treated with 5×10^6 MDA-MB-231 tumor cells (sc) in the right flank. Animals were randomized (ten per group) when tumors reach an average size of 80-120 mg and treatment began according to the table below.
# Tumor measurements were taken twice weekly using calipers and were converted to tumor mass (in milligrams) using the formula: with^2 (mm)×length (mm)×0.52. Body weights were also recorded twice weekly. Statistical analysis was done using the unpaired two-tailed Student's t test.
# [5] = Population pharmacokinetic analysis (NONMEM), mouse; format: in vivo; settings: 30 mg/kg; for half-life: CD1, mouse, plasma, iv; for clearance / Vd: CD1, plasma, Mouse (IV); for Vd: read-out: Vss
# From the text: as §1
# [6] = population PK, read-out: t1/2, α (converted)
# [7] = population PK, read-out: t1/2, β (converted)
compound,measurement,setting,value
"CC(C)=CCC/C(C)=C/CC/C(C)=C/CN1C(=O)c2cccc(O)c2Nc2c(O)cc(O)cc21 [Compound 1, 10-farnesyl-4,6,8-trihydroxy-dibenzodiazepin-11-one]",half-life,[1]; [6],0.308 h
same,half-life,[1]; [7],8.05 h
same,clearance,[1]; WT 3.8 Kg,28 mL/min
same,Vd,[1]; WT 3.8 Kg,2.36 L
same,clearance,[1]; population PK,7.35 mL/min/kg
same,Vd,[1]; population PK,0.622 L/kg
same,tissue distribution (in words),"[2]; IV and IP dosing 30 mg/kg, 30 min",well distributed
same,tissue levels (in words),"[2]; SC dosing 30 mg/kg, 30 min, versus IP",significantly lower
same,time plasma concentration maintained at therapeutically relevant levels,"[2]; intraperitoneal and subcutaneous administrations, 30 mg/kg, Formulation D11",over 8 hours
same,concentration at 2 h,"[3]; intravenous, 25 mg/kg/day",28 ng/mL
same,concentration at 2 h,"[3]; intravenous, 50 mg/kg/day",53 ng/mL
same,concentration at 2 h,"[3]; intravenous, 75 mg/kg/day",75 ng/mL
same,concentration at 10 day,"[3]; intravenous, CIV, 50 mg/kg/day",1750 ng/mL and ~3.8 µM
same,Vd,"[3]; 25 mg/kg/day, 25 mg/kg/day, read-out: Vss",15.8 L/kg
same,Vd,"[3]; 25 mg/kg/day, 25 mg/kg/day, read-out: Vz",6.8 L/kg
same,Vd,"[3]; 50 mg/kg/day, 50 mg/kg/day, read-out: Vss",38.8 L/kg
same,Vd,"[3]; 50 mg/kg/day, 50 mg/kg/day, read-out: Vz",3.1 L/kg
same,Vd,"[3]; 75 mg/kg/day, 75 mg/kg/day, read-out: Vss",15.4 L/kg
same,Vd,"[3]; 75 mg/kg/day, 75 mg/kg/day, read-out: Vz",3.1 L/kg
same,AUC,[3]; 25 mg/kg/day,116 µg·h/mL
same,clearance,[3]; 25 mg/kg/day,50 mL/min/kg
same,AUC,[3]; 50 mg/kg/day,396 µg·h/mL
same,clearance,[3]; 50 mg/kg/day,30 mL/min/kg
same,AUC,[3]; 75 mg/kg/day,597 µg·h/mL
same,clearance,[3]; 75 mg/kg/day,30 mL/min/kg
same,antitumor activity (in words),[4],did not result in activity
same,half-life,[5]; [6],0.078 h
same,half-life,[5]; [7],2.49 h
same,clearance,[5]; WT 0.022 Kg,0.533 mL/min
same,Vd,[5]; WT 0.022 Kg,0.009 L
same,clearance,[5]; population PK,24.8 mL/min/kg
same,Vd,[5]; population PK,0.401 L/kg
